Assays:
[1] = molar heat capacity at saturation pressure; conditions: Liquid, Vacuum adiabatic calorimetry
[2] = Crystal; Adiabatic calorimetry

CC(C)C [2-methylpropane]
[1]
Conditions	molar heat capacity [J/K/mol]
116.8 K	99.97
119.57 K	100.39
122.23 K	100.86
124.96 K	101.19
127.55 K	101.83
130.24 K	102.1
132.77 K	102.54
135.42 K	103.17
137.9 K	103.68
140.51 K	103.94
142.95 K	104.41
145.52 K	104.91
147.92 K	105.3
150.47 K	105.75
152.83 K	106.16
155.34 K	106.5
157.66 K	107.02
160.15 K	107.18
162.44 K	107.78
164.89 K	108.27
167.16 K	108.62
169.58 K	109.08
171.82 K	109.17
174.21 K	110.08
176.43 K	110.08
178.8 K	110.97
180.99 K	111.25
183.33 K	112.12
185.5 K	112
187.82 K	112.78
189.97 K	112.81
192.26 K	113.22
194.39 K	113.72
196.66 K	114.21
198.77 K	114.75
201.01 K	115.05
203.11 K	115.61
205.34 K	115.9
207.41 K	116.35
209.61 K	116.79
211.67 K	117.4
213.86 K	117.52
215.9 K	118.12
218.07 K	118.51
220.09 K	118.79
222.24 K	119.63
224.25 K	119.86
226.39 K	120.61
228.38 K	121.07
230.5 K	121.62
232.48 K	121.93
234.59 K	122.3
236.55 K	122.62
238.65 K	123.75
240.59 K	123.7
242.68 K	124.31
244.61 K	124.72
246.68 K	125.15
248.6 K	125.88
250.66 K	126.37
252.57 K	126.78
254.62 K	127.78
256.52 K	127.81
258.55 K	128.92
260.45 K	128.69
262.47 K	129.62
264.35 K	129.86
266.37 K	130.48
268.24 K	131.47
270.24 K	131.7
272.11 K	132.45
274.1 K	133.44
275.96 K	133.56
277.94 K	134.24
279.8 K	134.7
281.76 K	135.37
283.62 K	135.69
285.57 K	136.15
287.43 K	137.7
289.37 K	137.5
291.23 K	138.84
293.15 K	139.14
295.01 K	139.36
296.93 K	140.12
298.78 K	140.84
300.68 K	141.15
302.54 K	142.6
306.3 K	143.77
308.17 K	143.87
310.04 K	144.87
311.91 K	146
313.77 K	146.62
315.63 K	147.42

Conditions	Triple point temperature [K]
[2]	113.71

From the NIST ThermoML archive (doi:10.1021/je9001575)
